Test results published in patent publication US6730295B2, “Anionic polymers as species specific antibacterial agents” (Genzyme Corporation, priority 2000, dated 2004).

Tests used:
Experiment in all cases: MIC assay (NCCLS broth microdilution)
Format in all cases: cell-based
S. pneumoniae = details: species 4 = S. pneumoniae; 18-24 hr at 35° C., Mueller-Hinton broth
Description: (§1) The minimum inhibitory concentration (MIC) assay is performed according to the Performance Standards for Antimicrobial Susceptibility Testing, 1998, vol. M 100-S8, Eighth Informational Supplement, NCCLS, 940 West Valley Road, Suite 1400, Wayne, Pa. 19087.
(§2) Polymers to be tested were dissolved in 0.85% saline to a final concentration of either 830 or 1000 μg/ml, the pH was adjusted to 7.0 and the solution was filter-sterilized through a 0.22 μm filter. Two-fold serial dilutions of polymer were prepared in Mueller-Hinton broth with cations aliquotted into 96-well microtiter plates. The plates were then inoculated with […] of target organism, and incubated 18-24 hr at 35° C. The optical density (OD) was then read at 590 nm, and microorganism growth was scored (OD >0.1 is considered to be growth; OD <0.1 is considered growth inhibition). The MIC value was defined as the lowest concentration of compound which inhibits growth.

N. meningitidis = details: species 5 = N. meningitidis; 18-24 hr at 35° C., Mueller-Hinton broth
Description: as §1, §2

Branhamella catarrhalis = details: species 6 = Branhamella catarrhalis; 18-24 hr at 35° C., Mueller-Hinton broth
Description: as §1, §2

E. Faecium = details: species 2 = E. Faecium; 18-24 hr at 35° C., Mueller-Hinton broth
Description: as §1, §2

E. coli = details: species 1 = E. coli; 18-24 hr at 35° C., Mueller-Hinton broth
Description: as §1, §2

S. sanguis = details: species 3 = S. sanguis; 18-24 hr at 35° C., Mueller-Hinton broth
Description: as §1, §2

CCCCCCCCCCCCOS(=O)(=O)[O-].[Na+] [sodium dodecyl sulfate]
minimum inhibitory concentration (MIC) (S. pneumoniae): 28 | minimum inhibitory concentration (MIC) (N. meningitidis): 28 | minimum inhibitory concentration (MIC) (Branhamella catarrhalis): 9 | minimum inhibitory concentration (MIC) (E. Faecium): >83 | minimum inhibitory concentration (MIC) (E. coli): >83 | minimum inhibitory concentration (MIC) (S. sanguis): 28
